Read-outs that look alike come from different tables or passages of the source.
Assays:
[1] = tested on: TBL1X; details: K-562 cell lysate
[2] = target: T1, ALDH2 (Homo sapiens, UniProt P05091); assay: Competition binding assay in cell lysate, affinity matrix, MS; details: ALDH2, read-out: IC50
T1 construct: endogenous in cells
T1 sequence (P05091 18-517): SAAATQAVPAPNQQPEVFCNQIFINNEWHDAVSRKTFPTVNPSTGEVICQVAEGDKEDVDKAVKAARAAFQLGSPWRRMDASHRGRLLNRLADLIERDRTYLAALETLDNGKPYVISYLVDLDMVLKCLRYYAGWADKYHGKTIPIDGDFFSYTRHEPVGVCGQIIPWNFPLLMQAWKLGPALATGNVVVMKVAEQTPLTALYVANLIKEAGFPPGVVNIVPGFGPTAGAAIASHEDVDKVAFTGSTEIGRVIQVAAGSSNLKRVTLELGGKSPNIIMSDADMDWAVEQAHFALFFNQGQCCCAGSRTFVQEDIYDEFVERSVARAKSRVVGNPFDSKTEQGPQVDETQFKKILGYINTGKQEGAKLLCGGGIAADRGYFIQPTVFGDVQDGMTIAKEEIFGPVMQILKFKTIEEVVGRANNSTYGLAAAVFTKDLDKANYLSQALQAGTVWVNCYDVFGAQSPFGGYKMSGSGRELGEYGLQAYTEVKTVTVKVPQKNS

[3] = tested on: MTA2; assay: Competition binding assay in cell lysate, affinity matrix, MS (Mi-2/NuRD interactor)
[4] = tested on: CoREST complex; assay: Chemoproteomic binding profiling, K562 cell extract, SAHA/ITF2357 probe matrix (Kd app); parameters: species or system human; details: read-out: Kd^app GSE1
[5] = tested on: GATAD2A; assay: Competition binding assay in cell lysate, affinity matrix, MS (Mi-2/NuRD interactor)
[6] = tested on: DNTTIP1; assay: Competition binding assay in cell lysate, affinity matrix, MS; details: K-562 cell lysate
[7] = tested on: GATAD2B; assay: Competition binding assay in cell lysate, affinity matrix, MS (Mi-2/NuRD interactor)
[8] = target: T2, HSPD1 (Homo sapiens, UniProt P10809); assay: Competition binding assay in cell lysate, affinity matrix, MS; details: HSPD1, read-out: IC50
T2 construct: endogenous in cells

[9] = target: T3, ISOC2 (Homo sapiens, UniProt Q96AB3); assay: as above; details: ISOC2; K-562 cell lysate
T3 construct: endogenous in cells

[10] = tested on: MTA1; assay: Competition binding assay in cell lysate, affinity matrix, MS (Mi-2/NuRD interactor); parameters: species or system human; details: Molt-4 cell lysate
[11] = tested on: histone acetylation, K562 cells; assay: Mapping of histone acetylation by LC-MS/MS of K562 cells treated with HDACi; format: cell-based, human; details: K562 cells treated 6 hours, isobaric tagging and MS/MS
[12] = target: T4, PPP4C (Homo sapiens, UniProt P60510); assay: Competition binding assay in cell lysate, affinity matrix, MS; details: PPP4C, read-out: IC50
T4 construct: endogenous in cells
T4 sequence (P60510 1-307): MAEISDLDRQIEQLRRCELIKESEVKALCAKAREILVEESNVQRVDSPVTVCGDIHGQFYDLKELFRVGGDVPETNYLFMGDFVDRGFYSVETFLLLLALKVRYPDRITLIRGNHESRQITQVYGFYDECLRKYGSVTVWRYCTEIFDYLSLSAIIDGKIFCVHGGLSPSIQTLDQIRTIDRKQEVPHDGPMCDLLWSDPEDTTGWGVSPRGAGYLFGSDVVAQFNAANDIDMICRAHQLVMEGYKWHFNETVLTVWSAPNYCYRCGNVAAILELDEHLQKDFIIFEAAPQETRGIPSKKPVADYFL

[13] = target: T5, WDR5 (Homo sapiens, UniProt P61964); assay: as above; details: WDR5; K-562 cell lysate
T5 construct: endogenous in cells

[14] = tested on: MTA3; assay: Competition binding assay in cell lysate, affinity matrix, MS (Mi-2/NuRD interactor); details: K-562 cell lysate
[15] = tested on: Sin3 complex; assay: Chemoproteomic binding profiling, K562 cell extract, SAHA/ITF2357 probe matrix (Kd app); parameters: species or system human
[16] = tested on: NuRD complex; assay: as above; parameters: species or system human
[17] = tested on: GPS2; details: Molt-4 cell lysate
[18] = tested on: RBBP7; assay: Competition binding assay in cell lysate, affinity matrix, MS (Sin3/Mi2-NuRD interactor)
[19] = tested on: TBL1XR1
[20] = target: T6, BZW2 (Homo sapiens, UniProt Q9Y6E2); assay: Competition binding assay in cell lysate, affinity matrix, MS; details: BZW2, read-out: IC50
T6 construct: endogenous in cells
T6 sequence (Q9Y6E2 1-419): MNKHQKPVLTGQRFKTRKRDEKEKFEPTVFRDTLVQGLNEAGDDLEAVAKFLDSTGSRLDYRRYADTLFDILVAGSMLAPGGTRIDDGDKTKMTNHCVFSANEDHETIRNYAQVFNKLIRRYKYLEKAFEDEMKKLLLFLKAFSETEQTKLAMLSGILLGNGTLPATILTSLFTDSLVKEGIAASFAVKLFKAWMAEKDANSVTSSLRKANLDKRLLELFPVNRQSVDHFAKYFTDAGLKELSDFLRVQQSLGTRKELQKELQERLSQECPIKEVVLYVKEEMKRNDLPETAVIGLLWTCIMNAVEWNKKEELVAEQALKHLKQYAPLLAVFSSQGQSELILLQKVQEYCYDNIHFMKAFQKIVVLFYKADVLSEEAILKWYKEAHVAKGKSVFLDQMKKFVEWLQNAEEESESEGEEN

[21] = tested on: MBD3; assay: Competition binding assay in cell lysate, affinity matrix, MS (Mi-2/NuRD interactor)
[22] = target: T7, ISOC1 (Homo sapiens, UniProt Q96CN7); assay: Competition binding assay in cell lysate, affinity matrix, MS; details: ISOC1, read-out: IC50
T7 construct: endogenous in cells
T7 sequence (Q96CN7 1-298): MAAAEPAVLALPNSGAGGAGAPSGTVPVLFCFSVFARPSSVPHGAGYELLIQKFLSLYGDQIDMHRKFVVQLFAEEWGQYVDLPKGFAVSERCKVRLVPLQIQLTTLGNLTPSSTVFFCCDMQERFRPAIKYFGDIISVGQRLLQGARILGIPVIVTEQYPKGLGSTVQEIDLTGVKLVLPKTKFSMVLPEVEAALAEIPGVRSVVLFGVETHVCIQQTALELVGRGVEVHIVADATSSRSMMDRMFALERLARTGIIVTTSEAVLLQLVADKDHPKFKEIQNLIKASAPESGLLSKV

T2 sequence (P10809 27-573): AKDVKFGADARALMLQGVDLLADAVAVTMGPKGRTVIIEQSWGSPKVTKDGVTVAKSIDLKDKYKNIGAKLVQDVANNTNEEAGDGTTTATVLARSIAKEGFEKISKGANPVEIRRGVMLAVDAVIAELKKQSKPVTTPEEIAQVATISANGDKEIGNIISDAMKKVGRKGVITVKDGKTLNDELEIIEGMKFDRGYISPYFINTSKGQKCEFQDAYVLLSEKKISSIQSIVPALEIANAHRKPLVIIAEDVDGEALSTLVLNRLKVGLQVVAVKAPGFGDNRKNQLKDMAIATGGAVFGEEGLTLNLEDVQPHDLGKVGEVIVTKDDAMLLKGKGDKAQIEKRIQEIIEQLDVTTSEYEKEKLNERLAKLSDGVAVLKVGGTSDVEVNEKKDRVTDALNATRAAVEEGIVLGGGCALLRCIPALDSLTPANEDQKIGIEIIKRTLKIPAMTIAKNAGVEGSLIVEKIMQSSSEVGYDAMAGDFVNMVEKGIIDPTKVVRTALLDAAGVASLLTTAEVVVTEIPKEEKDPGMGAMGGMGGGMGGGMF
T3 sequence (Q96AB3 whole entry): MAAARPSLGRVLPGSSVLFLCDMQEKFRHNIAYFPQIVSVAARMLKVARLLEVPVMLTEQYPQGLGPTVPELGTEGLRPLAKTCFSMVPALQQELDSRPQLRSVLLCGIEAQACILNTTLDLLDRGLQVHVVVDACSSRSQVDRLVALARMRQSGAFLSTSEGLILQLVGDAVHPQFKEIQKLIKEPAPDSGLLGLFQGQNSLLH

CC(/C=C/C(=O)NO)=C\[C@@H](C)C(=O)c1ccc(N(C)C)cc1 [Trichostatin A]
IC50 [1]: 50 nM | IC50 ([2]; K-562 cell lysate): 3000 nM | IC50 ([2]; Molt-4 cell lysate): 3000 nM | IC50 ([3]; K-562 cell lysate): 70 nM | IC50 ([3]; Molt-4 cell lysate): 60 nM | Kd [4]: 4 nM | IC50 ([5]; K-562 cell lysate): 60 nM | IC50 ([5]; Molt-4 cell lysate): 40 nM | IC50 [6]: 50 nM | IC50 ([7]; K-562 cell lysate): 60 nM | IC50 ([7]; Molt-4 cell lysate): 60 nM | IC50 ([8]; K-562 cell lysate): 3000 nM | IC50 ([8]; Molt-4 cell lysate): 3000 nM | IC50 [9]: 3000 nM | IC50 [10]: 60 nM | abundance of acetylated histone peptides (in words) [11]: pronounced abundance of hyperacetylated histone peptides | IC50 ([12]; K-562 cell lysate): 3000 nM | IC50 ([12]; Molt-4 cell lysate): 3000 nM | IC50 [13]: 420 nM | IC50 [14]: 60 nM | Kd ([15]; protein SAP30, read-out: Kd^app SAP30): 30 nM | Kd ([15]; protein SIN3A, read-out: Kd^app SIN3A): 30 nM | Kd ([15]; protein SIN3B, read-out: Kd^app SIN3B): 30 nM | Kd ([16]; read-out: Kd^app CHD4): 60 nM | Kd ([16]; read-out: Kd^app GATAD2B): 30 nM | Kd ([16]; read-out: Kd^app MTA1): 120 nM | IC50 [17]: 100 nM | IC50 ([18]; K-562 cell lysate): 180 nM | IC50 ([18]; Molt-4 cell lysate): 120 nM | IC50 ([19]; K-562 cell lysate): 70 nM | IC50 ([19]; Molt-4 cell lysate): 70 nM | IC50 ([20]; K-562 cell lysate): 2790 nM | IC50 ([20]; Molt-4 cell lysate): 2450 nM | IC50 ([21]; K-562 cell lysate): 50 nM | IC50 ([21]; Molt-4 cell lysate): 40 nM | IC50 ([22]; K-562 cell lysate): 3000 nM | IC50 ([22]; Molt-4 cell lysate): 3000 nM

Source: patent publication US20130071854A1, “METHODS FOR THE IDENTIFICATION AND CHARACTERIZATION OF HDAC INTERACTING COMPOUNDS” (priority 2009, published 2013)
